The text below walks through data of patent US20190358176A1, “METHODS OF SENSITIZING CANCER CELLS TO IMMUNE CELL KILLING” (University of Pittsburgh - of the Commonwealth System of …, priority 2017, published 2019).

The term IC50 denotes the concentration needed to halve the response being measured.

The subject of one data set is MDA-MB-231 cells. The data set is described as follows: HCA of apoptosis and ERK phosphorylation (multiparametric: nuclear condensation, caspase-3 cleavage, ERK phosphorylation). The format is cell-based, human. The conditions noted are these: for IC50: Homo sapiens, 24 hours. The protocol: MDA-MB-231 cells (10,000/well) were treated with identical concentration gradients of test agents on the right and left half of a 384 well microplate for later assessment of potential compound autofluorescence. After 24 hours, cells were fixed, permeabilized with 0.2% Triton X-100, blocked with 1% BSA/PBS, and immunostained with anti-phospho-ERK (E10, CST cat#9106L)/AlexaFluor488 and anti-cleaved caspase-3 (CST cat#9664L)/AlexaFluor594 primary/secondary antibody pairs. Plates were imaged on the ArrayScan II using a 10×0.5NA objective. Each well was background corrected by subtracting mean phospho-ERK and cleaved caspase-3 intensities from wells that had received secondary antibody only. Data in Table 1 are the averages of the indicated numbers of independent experiments, each performed in quadruplicate. IC50, standard error, and 95% confidence intervals were calculated by […] in GraphPad Prism.
Multiple data points were analyzed in GraphPad Prism by one-way ANOVA using Dunnett's multiple comparison test. EC50/IC50 values were obtained from at least three independent experiments by non-linear regression using a four parameter logistic equation. IC50, standard error, and 95% confidence intervals were calculated in GraphPad.

For another data set, the system named is rat hepatocytes. As to the kind of experiment: ROS generation in hepatocytes (DHE staining). The class given is cell-based. The protocol: Cells were cultured as above and labeled four hours following drug addition with 4 μM DHE for 2 hours. Hoechst 33342 was added to a 4 μg/ml final concentration during the final hour of incubation. In the presence of ROS, DHE is oxidized to a red fluorescent dye (oxyethidium). Cells were imaged as above and the percentage of oxyethidium-nuclear positive cells calculated based on a threshold set with vehicle treated cells.

A further data set deals with zebrafish embryos. As to the kind of experiment: ROS generation in zebrafish embryos (DHE). The class given is in vivo. The conditions noted are these: developing zebrafish embryos, 48 hpf. On the procedure:
All procedures involving zebrafish were reviewed and approved by the University of Pittsburgh Institutional Animal Care and Use Committee. Wildtype AB* embryos were kept in E3 medium (5 mM NaCl, 0.17 mM KCl, 0.33 mM CaCl2, 0.33 mM MgSO4). At 48 hours post fertilization (hpf), embryos were arrayed into the wells of a 96 well microplate and treated with vehicle (0.5% DMSO) or test agents. After a 30-min pre-incubation, embryos were labeled with a solution of 10 μM DHE and 40 μg/mL MS222 (tricaine methanesulfonate, Sigma) in E3 to restrict movement during imaging. Six hours after DHE loading, embryos were imaged on an ArrayScan II using a 2.5× objective. Images were analyzed for oxyethidium fluorescence with the TargetActivation Bioapplication using the MEAN_ObjectAvgIntenCh1 parameter.

Data set [1] relates to ERK, JNK/SAPK, p38, MEK1 and MKK4/SEK1 phosphorylation. As to the kind of experiment: Western blot of MAPK cascade phosphorylation. The conditions noted are these: 20 μM. The format is cell-based, human.
Data set [2] concerns DUSP6/MKP-3 and DUSP1/MKP-1. The conditions noted are these: HeLa cells, prior study (12); cited from earlier work.

Read-outs that look alike come from different tables or passages of the source.

As to `O=C1/C(=C/c2ccccc2)C(NC2CCCCC2)c2cc(Br)ccc21` (stereo not drawn) [BCI-215], in the data set on MDA-MB-231 cells (BCI and BCI-215 at 22 μM), the nuclear morphology entry is on record as “shrunken, condensed nuclei that resembled pyknosis”. For the same compound, the half-inhibitory concentration (IC50) is 15.4 µM with MDA-MB-231 cells (induction of phospho-ERK, read-out: IC50 ERK phosphorylation); 7.33 µM in the data set with MDA-MB-231 cells (read-out: IC50 Caspase-3 cleavage); 12.8 µM in the data set with MDA-MB-231 cells (read-out: IC50 Nuclear condensation). In the data set on rat hepatocytes, the “generation of ROS in hepatocytes (DHE)” value is given as “does not Generate Reactive Oxygen Species”. Further, the “generation of ROS in zebrafish embryos (DHE)” value in the data set with zebrafish embryos was “does not Generate Reactive Oxygen Species”. Further, the “activation of upstream kinases MEK1 and MKK4/SEK1” value in data set [1] (MDA-MB-231, BT-20 and HeLa, 1 hour) is “activated MEK1 and MKK4/SEK1”. Further, the “activation (phosphorylation) of ERK, JNK/SAPK and p38” value in data set [1] (MDA-MB-231 cells) is reported as “activated all three kinases”. The “effect on ectopic DUSP6/MKP-3 and DUSP1/MKP-1 expression” value in data set [2] is given as “override the effects”.
